Source: patent US9115151B2, “Substituted 2,10-dihydro-9-oxa-1,2,4A-triazaphenanthren-3-ones and uses thereof” (AbbVie Inc., priority 2012, dated 2015)

Experiments:
[1] = biological target: T1, PKCθ (Homo sapiens, UniProt Q04759); experiment: In vitro enzyme assay (time-resolved fluorescence kinase assay), PKCθ, 100 μM ATP; format: biochemical
T1 construct: His6; purchased Millipore; host or cells: baculovirus in Sf21 cells
How it was run: (§1)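 Read-out was time-resolved fluorescence, corrected for a minus-enzyme blank and converted to percent activity relative to enzyme without drug. They were stopped with EDTA.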

[2] = biological target: T2, PKCα (Homo sapiens, UniProt P17252); experiment: In vitro enzyme assay (time-resolved fluorescence kinase assay), PKCα, 100 μM ATP; format: biochemical; conditions: 100 μM ATP; read-out: PKCα enzyme IC50
T2 construct: His6; purchased Millipore; host or cells: baculovirus in Sf21 cells
How it was run: as §1

[3] = system: CD3/CD28 induced IL-2 in human T-Blasts; experiment: T-Blasts CD3/CD28 induced IL-2 assay; format: cell-based; conditions: read-out: CD3/CD28-stimulated IL2 in T-blasts EC50
How it was run: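 PHA-generated human T-blasts, 2×10^5 per well, preincubated 30 min with 8-point 1/3 compound dilutions in duplicate, then stimulated with anti-CD3+anti-CD28 (5 μg/mL final) for 24 h at 37° C. Supernatant IL-2 measured; MTT toxicity run on remaining cells.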

T1 sequence (Q04759 whole entry): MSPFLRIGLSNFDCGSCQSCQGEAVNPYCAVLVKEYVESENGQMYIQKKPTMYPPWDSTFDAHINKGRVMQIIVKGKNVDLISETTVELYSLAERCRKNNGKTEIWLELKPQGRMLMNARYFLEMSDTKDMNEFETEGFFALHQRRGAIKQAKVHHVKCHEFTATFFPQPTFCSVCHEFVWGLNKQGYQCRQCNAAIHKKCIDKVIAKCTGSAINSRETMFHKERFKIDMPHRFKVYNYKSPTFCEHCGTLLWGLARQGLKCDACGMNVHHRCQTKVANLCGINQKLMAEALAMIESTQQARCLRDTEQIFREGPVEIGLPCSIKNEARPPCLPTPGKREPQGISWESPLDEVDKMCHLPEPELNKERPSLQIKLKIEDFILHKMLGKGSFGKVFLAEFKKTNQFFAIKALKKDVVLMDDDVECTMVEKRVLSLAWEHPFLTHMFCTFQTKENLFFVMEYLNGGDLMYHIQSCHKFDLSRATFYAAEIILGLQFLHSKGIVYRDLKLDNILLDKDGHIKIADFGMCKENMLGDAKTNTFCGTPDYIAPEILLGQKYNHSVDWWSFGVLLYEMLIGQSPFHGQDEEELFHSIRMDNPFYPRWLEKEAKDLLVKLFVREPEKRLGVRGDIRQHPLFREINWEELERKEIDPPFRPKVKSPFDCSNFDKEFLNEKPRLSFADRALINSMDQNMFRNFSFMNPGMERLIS

CC1C(=O)NN=C2COc3cc(C4CC4)c(OC4CNC4)cc3N21 (stereo not drawn) [Example 65, 6-(Azetidin-3-yloxy)-7-cyclopropyl-4-methyl-2,10-dihydro-9-oxa-1,2,4a-triaza-phenanthren-3-one trifluoroacetic acid]
IC50 [1]: < 250 nM
IC50 [2]: 1000 to 10000 nM
EC50 [3]: < 250 nM
